In patent US4159328A, “Tetrahydro-1,3,5-thiadiazin-4-one derivative” (Nihon Nohyaku Co., Ltd., priority 1977, dated 1979):
Like-named read-outs stand apart in the source and are kept apart here.

Experiments:
Format in all cases: in vivo
[1] = test system: larvae of brown planthopper (Nilaparvata lugens Stahl); test: Test Example 1: insecticidal activity against larvae of brown planthopper; settings: third-instar larvae, 25° C.
How it was run: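 Rice seedlings at 1.5-leaf stage were dipped for 30 s in a 400 ppm test composition, air-dried, and infested with third-instar N. lugens larvae. After holding at 25 °C, mortality was scored 5 or 7 days post-treatment from three replicates.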

[2] = test system: cirrus red mite (Panonychus citri McGregor); test: Test Example 4: activity to citrus red mite (Rothamstead method); set-up: concentration or dose not given beside the values; settings: two days after treatment, 25° C.; 2880 min
Procedure: Activity to cirrus red mite (Panonychus citri McGregor).
Testing method: The test was performed by Rothamstead method. A test composition was sprayed by means of a spray gun over grapefruit leaves infested with citrus red mites. After air-drying the grapefruit was left standing in a constant temperature cabinet at 25° C. Two days after the treatment, the number of survived mites was counted to calculate the mortality.

[3] = test system: two-spotted spider mite (Tetranychus urticae Koch); test: Test Example 3: activity to two-spotted spider mite
From the text: Activity to two-spotted spider mite (Tetranychus urticae Koch).
Testing method: Two-spotted spider mites were set free on the pot-planted soybean in a greenhouse. On the next day, a test composition of 1,000 ppm concentration was sprayed over the soybean by means of a spray gun. Two days or five days after the treatment, dead-and-survival was inspected to calculate the mortality.

[4] = test system: larvae of white-backed planthopper (Sogatella furcifera Horvath); test: Test Example 2: insecticidal activity against larvae of white-backed planthopper; settings: 168 h, 400 ppm, first-instar larvae, 25° C., seven days after treatment, read-out: Mortality
How it was run: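 Rice seedlings at 1.5-leaf stage were dipped 30 s in 400 ppm test composition, air-dried, and infested with five first-instar larvae. Tubes were held at 25°C, and mortality was scored at 7 days from triplicate tests.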

[5] = test system: larvae of green rice leafhopper (Nephotettix cincticeps Uhler); test: Test Example 5: activity against larvae of green rice leafhopper; settings: 168 h, 400 ppm, second-instar larvae, 25° C., seven days after treatment, read-out: Mortality
How it was run: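 Rice seedlings at 1.5 leaf age dipped 30 seconds in 400 ppm test composition, air-dried, then infested with five second-instar larvae. Kept at 25° C; mortality scored seven days after treatment, three replicates.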

[6] = test system: larvae of bug. (Togo hemipterus Scott); test: Test Example 9: insecticidal activity against larvae of bug; settings: 120 h, 10 ppm, first-instar larvae, 25° C., five days, read-out: Mortality
Procedure: Insecticidal activity against larvae of bug. (Togo hemipterus Scott).
Test method: Into a glass tube (1.6 cm in internal diameter and 9 cm in length), was added 1 ml of a test composition in 10 ppm concentration just to moisten the absorbent cotton. Five rice seeds and five first-instar larvae were introduced into the glass tube and the tube end was covered with a piece of Japanese paper. The glass tube was kept in a constant temperature cabinet at 25° C. Five days after treatment, the dead-and-survival was inspected to calculate the mortality (3-replication test).

[7] = test system: larvae of 28-spotted lady beetle (Epilachna vigintioctopunctana Fabricius); test: Test Example 8: insecticidal activity against larvae of 28-spotted lady beetle; settings: 120 h
Procedure: Insecticidal activity against larvae of 28-spotted lady beetle (Epilachna vigintioctopunctana Fabricius).
Testing method: Leaflets of tomato grown in a greenhouse were dipped in a test composition of 100 ppm concentration for 30 seconds and after that the leaflets were dried by air. In a Petri dish covered on the bottom with a piece of filter paper, were introduced 1 ml of water and three treated tomato leaflets. After having been infested with seven second-instar larvae of 28-spotted lady beetle, the Petri dish was left standing in a constant temperature cabinet at 25° C. Five days after the treatment, the dead-and-survival was inspected to calculate the mortality (2-replication test).

[8] = test system: larvae of house mosquito (Culex pipiens pallens Coquillett); test: Test Example 6: insecticidal activity to larvae of house mosquito; settings: 120 h
How it was run: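 Twenty first-instar Culex pipiens pallens larvae placed with feed in test composition diluted in deionized water to 10 ppm. Kept at 25 °C, and mortality counted five days after treatment.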

[9] = 100 ppm, second-instar larvae, 25° C., five days, read-out: Mortality
[10] = 120 h, 1,000 ppm, 5 days after treatment

Row | Structure (SMILES) | mortality at 400 ppm ([1]; 168 h, 7 days after treatment) | Mortality [2] | mortality at 1000 ppm ([3]; 48 h, 1,000 ppm, 2 days after treatment) | mortality at 400 ppm [4] | mortality at 400 ppm [5] | mortality at 10 ppm [6] | mortality at 400 ppm ([1]; 120 h, 5 days after treatment) | mortality at 100 ppm [7, 9] | mortality at 10 ppm [8] | mortality at 100 ppm [7] | mortality at 1000 ppm [3, 10]
1 | CN=C1SCN(C(C)(C)CC(C)(C)C)C(=O)N1c1ccccc1 [Compound 88] | 100% | 100% | 100% | 100% | 80% |  |  |  |  |  | 
2 | CC(C)N=C1SCN(c2ccccc2)C(=O)N1C [Compound 118, 2-Isopropylimino-3-methyl-5-phenyl-tetrahydro-1,3,5-thiadiazin-4-one] |  | 100% |  |  |  | 100% |  |  |  |  | 
3 | CCCN=C1SCN(c2ccccc2)C(=O)N1CC [Compound 126] |  |  |  |  |  | 100% | 100% | 80% | 100% |  | 
4 | CCN1C(=O)N(c2ccccc2)CSC1=NC(C)C [Compound 127] |  |  |  |  |  | 100% | 100% |  | 100% | 80% | 
5 | CCN1C(=O)N(c2ccccc2)CSC1=NCC(C)C [Compound 129] |  |  |  |  |  | 100% | 80% |  | 100% |  | 
6 | CCCN=C1SCN(c2ccccc2)C(=O)N1CCC [Compound 134] |  |  |  |  |  | 80% | 100% |  | 80% | 80% | 
7 | CCCN1C(=O)N(c2ccccc2)CSC1=NC(C)CC (stereo not drawn) [Compound 136] |  |  |  |  |  | 100% | 80% |  | 100% | 50% | 
8 | CCCN1C(=O)N(c2ccccc2)CSC1=NC(C)(C)C [Compound 137] |  |  |  |  |  | 50% | 80% |  | 100% | 50% | 
9 | C=CCN=C1SCN(c2ccccc2)C(=O)N1CC=C [Compound 139] |  |  |  |  |  | 100% | 100% |  | 100% | 100% | 
10 | C=CCN1C(=O)N(c2ccccc2)CSC1=NCCC [Compound 140] |  |  |  |  | 100% | 50% | 100% |  | 100% | 50% | 
11 | C=CCN1C(=O)N(c2ccccc2)CSC1=NC(C)C [Compound 141] |  |  |  |  | 100% | 80% | 100% |  | 100% | 100% | 
12 | C=CCN1C(=O)N(c2ccccc2)CSC1=NC(C)CC (stereo not drawn) [Compound 142] |  |  |  |  | 100% | 100% | 100% |  | 100% | 100% | 
13 | C=CCN1C(=O)N(c2ccccc2)CSC1=NC(C)(C)C [Compound 143] |  |  |  |  | 100% | 100% |  |  | 80% | 100% | 
14 | CC(C)N=C1SCN(c2ccccc2)C(=O)N1C(C)C [Compound 144, 2-Isopropylimino-3-isopropyl-5-phenyltetrahydro-1,3,5-thiadiazin-4-one] |  |  |  | 100% | 100% | 100% |  |  | 100% | 100% | 
15 | CC(C)CN=C1SCN(c2ccccc2)C(=O)N1CC(C)C [Compound 148] |  | 100% |  |  |  |  | 100% |  |  | 100% | 
16 | CC(C)CN1C(=O)N(c2ccccc2)CSC1=NC(C)C [Compound 149, 2-Isopropylimino-3-isobutyl-5-phenyl-tetrahydro-1,3,5-thiadiazin-4-one] |  |  |  |  |  | 50% | 100% |  | 100% | 100% | 
17 | CC(C)CN1C(=O)N(c2ccccc2)CSC1=NC(C)(C)C [Compound 150] |  |  |  |  | 90% | 50% | 100% |  | 100% | 80% | 
18 | CCC(C)N=C1SCN(c2ccccc2)C(=O)N1C(C)CC (stereo not drawn) [Compound 151] |  |  |  |  | 100% | 80% | 100% |  | 100% | 100% | 
19 | CCC(C)N1C(=O)N(c2ccccc2)CSC1=NC(C)(C)C (stereo not drawn) [Compound 152] |  |  |  | 100% | 100% | 100% | 100% |  | 100% | 100% | 
20 | CC(C)(C)N=C1SCN(c2ccccc2)C(=O)N1C1CCCCC1 [Compound 155, 2-t-Butylimino-3-cyclohexyl-5-phenyl-tetrahydro-1,3,5-thiadiazin-4-one] |  |  |  |  |  | 100% | 50% |  | 100% | 100% | 
21 | CC(C)N1C(=O)N(c2ccccc2)CSC1=NC(C)(C)CC(C)(C)C [Compound 156] |  |  |  |  | 100% | 50% | 100% |  | 100% | 90% | 
22 | CCC(C)N1C(=O)N(c2ccccc2)CSC1=NC(C)(C)CC(C)(C)C (stereo not drawn) [Compound 157] |  |  |  |  |  | 100% | 100% |  | 100% | 100% | 
23 | CCN=C1SCN(c2ccccc2)C(=O)N1c1ccccc1 [Compound 162] |  |  |  |  |  | 50% | 100% | 50% | 100% |  | 
24 | CCC(C)N1C(=O)N(c2ccccc2Cl)CSC1=NC(C)(C)C (stereo not drawn) [Compound 249] |  | 100% |  |  | 100% |  | 100% |  | 100% | 100% | 70%
25 | Cc1ccc(N2CSC(=NC(C)C)N(C(C)C)C2=O)cc1 [Compound 316] |  | 100% |  | 100% |  |  | 100% |  | 70% | 100% | 100%
26 | CCC(C)N1C(=O)N(c2ccc(C)cc2)CSC1=NC(C)(C)C (stereo not drawn) [Compound 319] |  | 100% |  | 100% | 100% |  | 100% |  | 100% | 100% | 100%
